Data set [1] concerns Staphylococcus aureus. In words: Effective dose against Staphylococcus aureus NCTC-10649M in mice upon subcutaneous administration. To be noted: sc. Format: functional.
The nature of data set [2]: Oral bioavailability in rat (dose 5 mg/kg). The format is ADME, organism-based. To be noted: in vivo.
A short description of data set [3]: Compound was tested for its effective dose against Escherichia coli JUHL in mice upon peroral administration. Format: functional. To be noted: Mus musculus, po.
In data set [4] the test system is Escherichia coli. Briefly: Antibacterial activity against Escherichia coli JUHL was determined. The format is functional.
In a further data set the test system is Providencia stuartii. Briefly: Antibacterial activity against Gram-negative Providencia Stuartii CMX640 was determined. Format: functional.
The next data set has as its system Streptococcus pyogenes. In words: Antibacterial activity against Streptococcus pyogenes EES61 was determined. Format: functional.
A further data set has as its system Enterococcus faecium. Briefly: Antibacterial activity against Enterococcus faecium ATCC 8043 was determined. Format: functional.
The subject of the next data set is Klebsiella pneumoniae. In words: Antibacterial activity against Klebsiella pneumoniae ATCC 8045 was determined. The format is functional.
Another data set relates to Klebsiella aerogenes. Briefly: Antibacterial activity against Enterobacter aerogenes ATCC 13048 was determined. The format is functional.
Data set [5] relates to Staphylococcus aureus. Briefly: Antibacterial activity against Staphylococcus aureus A1775 was determined. Format: functional.
Data set [6] has as its system Escherichia coli. Briefly: Effective dose against Escherichia coli JUHL in mice upon subcutaneous administration. The format is functional. The note with it: sc.
The next data set concerns Pseudomonas aeruginosa. Briefly: Antibacterial activity against Pseudomonas aeruginosa A-5007 was determined. The format is functional.
Data set [7] concerns Staphylococcus aureus. Briefly: Effective dose against Staphylococcus aureus NCTC-10649M in mice upon peroral administration. The format is functional. To be noted: po.
Data set [8] is described as follows: Compound was evaluated for maximal plasma concentration in rat upon 5 mg/kg upon oral administration. Format: ADME, organism-based. More on the design: dose 5 mg/kg, route oral.
The next data set deals with Streptococcus equinus. In words: Antibacterial activity against Gram-positive Streptococcus bovis A5169 was determined. The format is functional. The note with it: Streptococcus equinus; read-out: MIC.
In data set [9] the test system is Staphylococcus aureus. In words: Antibacterial activity against Staphylococcus aureus NCTC-10649M was determined. Format: functional.
The next data set has as its system DNA gyrase (bacterial). Briefly: Compound was tested for bacterial DNA gyrase activity. To be noted: Bacteria.
The mark [10] stands for this setting: Escherichia coli, read-out: MIC.
The mark [11] stands for this setting: Providencia stuartii, read-out: MIC.
[12] abbreviates: Streptococcus pyogenes, read-out: MIC.
The mark [13] stands for this setting: Enterococcus faecium, ATCC 8043, read-out: MIC.
Setting [14] is: Klebsiella pneumoniae, ATCC 8045, read-out: MIC.
[15] abbreviates: Klebsiella aerogenes, ATCC 13048, read-out: MIC.
Where [16] appears, read: Staphylococcus aureus, read-out: MIC.
Setting [17] is: Pseudomonas aeruginosa, read-out: MIC.

Values after ≈ are worked out from the molar mass of the structure shown.

The values that follow come from ChEMBL document CHEMBL1130900, “Synthesis and structure-activity relationships of 2-pyridones: II. 8-(Fluoro-substituted pyrrolidinyl)-2-pyridones as antibacterial agents” (Bioorg Med Chem Lett, 1998).

Usually ED50 stands for the dose at which the effect has come halfway, by size or by number of responders. Read a low ED50 as an effect at a small dose. By bioavailability is commonly meant the share of a dose that reaches the circulation, judged against a reference dose that is usually intravenous. A lower bioavailability goes with poor availability. By MIC is commonly meant the lowest concentration that inhibits growth of the organism. What is called Cmax is the highest concentration seen after dosing.

`Cc1c(N2CCC(N)(CF)C2)c(F)cn2c(=O)c(C(=O)O)cc(C3CC3)c12` (configuration not stated): the ED50 in the data set with Staphylococcus aureus [1] was 2.7 mg/kg/day; in [3], 15.1 mg/kg/day; in the data set with Escherichia coli [6], 4.3 mg/kg/day; in the data set with Staphylococcus aureus [7], 10.3 mg/kg/day. Moreover, the bioavailability in [2] came out at 63%. For the same compound, the MIC in the data set on Escherichia coli [4] (setting [10]) was found to be 0.02 µg/mL (≈ 0.053 µM); with Providencia stuartii (setting [11]) it was 0.39 µg/mL (≈ 1.03 µM); in the data set on Streptococcus pyogenes (setting [12]), 0.1 µg/mL (≈ 0.265 µM); with Enterococcus faecium (setting [13]) it was 0.1 µg/mL (≈ 0.265 µM); in the data set with Klebsiella pneumoniae (setting [14]) it was 0.01 µg/mL (≈ 0.0265 µM); with Klebsiella aerogenes (setting [15]) it was 0.1 µg/mL (≈ 0.265 µM). Moreover, the MIC with Staphylococcus aureus [5] (setting [16]) is 0.78 µg/mL (≈ 2.07 µM); in the data set on Pseudomonas aeruginosa (setting [17]) it was 0.39 µg/mL (≈ 1.03 µM); in the data set with Streptococcus equinus, 0.2 µg/mL (≈ 0.53 µM); in the data set on Staphylococcus aureus [9] (setting [16]), 0.02 µg/mL (≈ 0.053 µM). The compound further displayed a Cmax in data set [8] of 600 ng/mL.
As for `Cc1c(N2C[C@H](CF)[C@@H](N)C2)c(F)cn2c(=O)c(C(=O)O)cc(C3CC3)c12`, the ED50 with Staphylococcus aureus [1] was determined as 1.2 mg/kg/day; in [3], 3 mg/kg/day; with Escherichia coli [6] it was 0.4 mg/kg/day; in the data set on Staphylococcus aureus [7], 11.5 mg/kg/day. The MIC with Escherichia coli [4] (setting [10]) is 0.1 µg/mL (≈ 0.265 µM); in the data set on Providencia stuartii (setting [11]), 0.78 µg/mL (≈ 2.07 µM); in the data set with Streptococcus pyogenes (setting [12]), 0.2 µg/mL (≈ 0.53 µM); in the data set on Enterococcus faecium (setting [13]), 0.2 µg/mL (≈ 0.53 µM); in the data set on Klebsiella pneumoniae (setting [14]), 0.002 µg/mL (≈ 0.0053 µM); in the data set with Klebsiella aerogenes (setting [15]) it was 0.02 µg/mL (≈ 0.053 µM). Moreover, the MIC came out at 3.1 µg/mL (≈ 8.21 µM) in the data set on Staphylococcus aureus [5] (setting [16]), 0.39 µg/mL (≈ 1.03 µM) with Pseudomonas aeruginosa (setting [17]), 0.39 µg/mL (≈ 1.03 µM) in the data set on Streptococcus equinus and 0.01 µg/mL (≈ 0.0265 µM) in the data set with Staphylococcus aureus [9] (setting [16]).
For `Cc1c(N2C[C@@H](CF)[C@H](N)C2)c(F)cn2c(=O)c(C(=O)O)cc(C3CC3)c12`, the median effective dose (ED50) stood at 1.2 mg/kg/day with Staphylococcus aureus [1] and 0.8 mg/kg/day with Escherichia coli [6]. The MIC is 0.02 µg/mL (≈ 0.053 µM) with Escherichia coli [4] (setting [10]); 0.78 µg/mL (≈ 2.07 µM) in the data set with Providencia stuartii (setting [11]); 0.1 µg/mL (≈ 0.265 µM) in the data set on Streptococcus pyogenes (setting [12]); 0.1 µg/mL (≈ 0.265 µM) in the data set with Enterococcus faecium (setting [13]); 0.01 µg/mL (≈ 0.0265 µM) in the data set on Klebsiella pneumoniae (setting [14]); 0.05 µg/mL (≈ 0.132 µM) in the data set with Klebsiella aerogenes (setting [15]). Also, the MIC in the data set on Staphylococcus aureus [5] (setting [16]) is 1.56 µg/mL (≈ 4.13 µM); with Pseudomonas aeruginosa (setting [17]) it was 0.39 µg/mL (≈ 1.03 µM); with Streptococcus equinus, 0.1 µg/mL (≈ 0.265 µM); against Staphylococcus aureus [9] it was 0.02 µg/mL (≈ 0.053 µM).
The compound `Cc1c(N2C[C@@H](N)[C@H](F)C2)c(F)cn2c(=O)c(C(=O)O)cc(C3CC3)c12` (stereo in doubt; 3a) registered a CC50 in the data set with DNA gyrase (bacterial) of 0.7 µg/mL (≈ 1.93 µM).
As for `Cc1c(N2C[C@H](CF)[C@H](N)C2)c(F)cn2c(=O)c(C(=O)O)cc(C3CC3)c12`, the MIC was 0.005 µg/mL (≈ 0.0132 µM) with Escherichia coli [4] (setting [10]); 0.39 µg/mL (≈ 1.03 µM) in the data set with Providencia stuartii (setting [11]); 0.02 µg/mL (≈ 0.053 µM) in the data set on Streptococcus pyogenes (setting [12]); 0.1 µg/mL (≈ 0.265 µM) in the data set with Enterococcus faecium (setting [13]); 0.005 µg/mL (≈ 0.0132 µM) with Klebsiella pneumoniae (setting [14]); 0.02 µg/mL (≈ 0.053 µM) with Klebsiella aerogenes (setting [15]). The MIC in the data set with Staphylococcus aureus [5] (setting [16]) worked out at 1.56 µg/mL (≈ 4.13 µM); with Pseudomonas aeruginosa (setting [17]) it was 0.2 µg/mL (≈ 0.53 µM); in the data set on Staphylococcus aureus [9] (setting [16]), 0.01 µg/mL (≈ 0.0265 µM).
With `Cc1c(N2CC[C@H](N)C2)c(F)cn2c(=O)c(C(=O)O)cc(C3CC3)c12` [ABT-719], the ED50 was determined as 0.6 mg/kg/day with Staphylococcus aureus [1], 0.6 mg/kg/day in [3], 0.1 mg/kg/day with Escherichia coli [6] and 3.4 mg/kg/day in the data set on Staphylococcus aureus [7]. In addition, the MIC turned out to be 0.002 µg/mL (≈ 0.00579 µM) with Escherichia coli [4] (setting [10]); 0.2 µg/mL (≈ 0.579 µM) in the data set on Providencia stuartii (setting [11]); 0.02 µg/mL (≈ 0.0579 µM) with Streptococcus pyogenes (setting [12]); 0.02 µg/mL (≈ 0.0579 µM) in the data set with Enterococcus faecium (setting [13]); 0.005 µg/mL (≈ 0.0145 µM) in the data set with Klebsiella pneumoniae (setting [14]); 0.005 µg/mL (≈ 0.0145 µM) in the data set on Klebsiella aerogenes (setting [15]). Moreover, the MIC in the data set with Staphylococcus aureus [5] (setting [16]) turned out to be 0.78 µg/mL (≈ 2.26 µM); in the data set with Pseudomonas aeruginosa (setting [17]) it was 0.5 µg/mL (≈ 1.45 µM); in the data set on Streptococcus equinus, 0.02 µg/mL (≈ 0.0579 µM); in the data set with Staphylococcus aureus [9] (setting [16]), 0.1 µg/mL (≈ 0.29 µM). The same compound yielded a CC50 in the data set with DNA gyrase (bacterial) of 0.03 µg/mL (≈ 0.0869 µM).
`Cc1c(N2CC[C@H]([C@@H](N)C(F)(F)F)C2)c(F)cn2c(=O)c(C(=O)O)cc(C3CC3)c12`: the ED50 with Staphylococcus aureus [1] is 11.9 mg/kg/day; in data set [3], above 10 mg/kg/day; with Escherichia coli [6], above 4 mg/kg/day; with Staphylococcus aureus [7], 25 mg/kg/day. Besides, the bioavailability in data set [2] stood at 57%. The MIC in the data set with Escherichia coli [4] (setting [10]) worked out at 0.2 µg/mL (≈ 0.468 µM); in the data set with Providencia stuartii (setting [11]) it was 3.1 µg/mL (≈ 7.25 µM); with Streptococcus pyogenes (setting [12]), 0.2 µg/mL (≈ 0.468 µM); in the data set with Enterococcus faecium (setting [13]), 0.1 µg/mL (≈ 0.234 µM); in the data set with Klebsiella pneumoniae (setting [14]), 0.2 µg/mL (≈ 0.468 µM); in the data set with Klebsiella aerogenes (setting [15]) it was 0.78 µg/mL (≈ 1.82 µM). Besides, the MIC with Staphylococcus aureus [5] (setting [16]) was determined as 0.39 µg/mL (≈ 0.912 µM); in the data set on Pseudomonas aeruginosa (setting [17]), 6.2 µg/mL (≈ 14.5 µM); in the data set with Streptococcus equinus, 0.2 µg/mL (≈ 0.468 µM); with Staphylococcus aureus [9] (setting [16]), 0.005 µg/mL (≈ 0.0117 µM). The Cmax in [8] was 800 ng/mL.
With `Cc1c(N2C[C@@H](CF)[C@H](N)C2)c(F)cn2c(=O)c(C(=O)O)cc(C3CC3)c12` (racemic), the MIC in the data set on Escherichia coli [4] stood at 0.01 µg/mL (≈ 0.0265 µM); in the data set with Providencia stuartii, 0.78 µg/mL (≈ 2.07 µM); against Streptococcus pyogenes it was 0.1 µg/mL (≈ 0.265 µM); against Enterococcus faecium, 0.1 µg/mL (≈ 0.265 µM); with Klebsiella pneumoniae it was 0.005 µg/mL (≈ 0.0132 µM); with Klebsiella aerogenes, 0.05 µg/mL (≈ 0.132 µM). The MIC was found to be 3.1 µg/mL (≈ 8.21 µM) against Staphylococcus aureus [5], 0.39 µg/mL (≈ 1.03 µM) against Pseudomonas aeruginosa and 0.2 µg/mL (≈ 0.53 µM) in the data set on Staphylococcus aureus [9].
